Key:
[1] = system: P. aeruginosa PA14; assay: MIC in LB Broth; type: cell-based; details: Pseudomonas aeruginosa; P. aeruginosa PA14, compound alone
Method: The minimum inhibitory concentration is defined as the lowest concentration of antibiotic at which no visible growth was detected after 16 hours at 37° C. Overnight cultures were diluted 1:150 in LB Broth and added to a 96-well plate. Antibiotics were serially diluted 1:2 and added to columns of the 96-well plate and grown at 37° C. with continuous shaking. Cell growth was measured by optical density (OD600). MIC assays were performed in either BioTek Synergy HT (Winooski, VT) or Tecan InfiniteM200 Pro (Männedorf, CH) microplate readers.

[2] = system: folate metabolism in P. aeruginosa; assay: Metabolomics (LC-MS metabolite abundance); type: cell-based; details: PA14, 2×MIC for 15 min, vs solvent control; P=0.0186 and 0.0196
Method: Metabolite abundance was quantified in comparison to the solvent only control. Data represents mean±SD for 3 biological replicates. P values were calculated using unpaired t-test using Prism 9 (P values≤0.05)
To test the ability of fluorofolin to inhibit P. aeruginosa DHFR in vivo, metabolomics were performed. As a positive control for DHFR inhibition, we turned to TMP.
Overnight P. aeruginosa PA14 cultures were diluted 1:150 in Gutnick Minimal Media and grown to early-mid exponential phase (OD600=0.4-0.6).
LC-MS analysis of metabolites was performed on Orbitrap Exploris 240 mass spectrometer coupled with hydrophilic interaction liquid chromatography (HILIC)^64. […] Flow rate was 0.15 mL/min, and column temperature was set at 25° C. […] The orbitrap resolution was 180,000 at m/z of 200. The maximum injection time was 200 ms, and the automatic gain control (AGC) target was 1000%. Raw mass spectrometry data were converted to mzXML format by MSConvert (ProteoWizard). Pick-peaking was done on El Maven (v0.8.0, Elucidata).

[3] = system: PA14 mutants with disruptions in mexA, mexB and oprM; assay: MIC against MexAB-OprM transposon mutants; type: cell-based, P. aeruginosa; details: oprM transposon mutants vs wildtype PA14
Method: FIG. 1I is the minimum inhibitory concentration of fluorofolin or trimethoprim against transposon mutants for each component of the MexAB-OprM efflux pump. MIC against wildtype PA14 was calculated to control for each drug stock. MIC values are representative of two independent replicates.
P. aeruginosa PA14 transposon mutants were generated by the Ausubel Lab (http://ausubellab.mgh.harvard.edu/cgi-bin/pa14/home.cgi). The MICs of fluorofolin and TMP against strains with disrupted MexA, MexB, and OprM were determined as above and compared to the parental strain. As transposon mutants in MexB were represented twice in this collection, the MIC was confirmed across both mutant strains.

[4] = system: P. aeruginosa PA14 nfxB T39P mutants; assay: Cross resistance of fluorofolin-resistant mutant; type: cell-based; details: 2×MIC
Text: NfxB is a transcriptional regulator protein that represses expression of the MexCD-OprN efflux pump.

Compound	MIC [1]	abundance of AICAR and dUMP [2]	change of MIC in efflux pump mutants [3]	resistance of nfxB T39P mutants [4]
COc1cc(Cc2cnc(N)nc2N)cc(OC)c1OC [trimethoprim, reference compound]	125 µg/mL	significant upregulation	large reductions in MIC	–
O=C(O)c1cn(C2CC2)c2cc(N3CCNCC3)c(F)cc2c1=O [ciprofloxacin]	–	–	–	cross-resistant

— patent publication US20260138981A1, “DIHYDROFOLATE REDUCTASE INHIBITORS FOR ANTI-BIOTIC RESISTANT INFECTIONS” (THE TRUSTEES OF PRINCETON UNIVERSITY, priority 2022, published 2026)
